pIC50: −log10 of the molar value. Converted amounts (≈) assume the structure as drawn.
Experiments:
[1] = test system: macrophage infiltration into 4T1 tumors; assay: Immunofluorescence of macrophages in 4T1 tumors (F4/80, Arg1); type: in vivo, mouse; conditions: Figure 8B
Description: Inhibition of PD-L1 and CD80/CD86 is directly achieved through the immune checkpoint blockade of their receptors using anti-CTLA-4 and anti-PD-1 antibodies.[69],[70]
Primary tumor tissues were fixed using 4% paraformaldehyde and subsequently dehydrated in sucrose solutions ranging from 10 to 30% for approximately 24 h each. The tissues were then embedded in base molds (Fisherbrand—#22363553) containing an optimal cutting temperature (OCT) compound (Fisher Healthcare—#4585). The tissue blocks were placed immediately on dry ice until the OCT compound solidified, and then they were stored at −80 °C. Prior to IF staining, sections of 5–10 μm were obtained using a Leica CM3050 S cryostat and SuperFrost Plus slides (Fisherbrand—#1255015). The tumor sections were then incubated with blocking buffer [phosphate-buffered saline containing 2% bovine serum albumin, 0.3% Triton X-100, 1% FBS, and 10% goat serum] for 1 h at RT. To detect macrophages in the TME, the sections were incubated with a pan-macrophage rat monoclonal antibody F4/80 (Abcam—#6640) diluted in blocking buffer overnight at 4 °C. Sixteen hours later, tissues were washed 3 times with 100 mM Tris–HCl and then incubated with a secondary goat antirat antibody (Invitrogen—#A11081) for 1 h at RT. […] Subsequently, 4′,6-diamidino-2-phenylindole (DAPI; Invitrogen—#D3571) was used to counterstain the nuclei for 5 min at RT. Finally, the slides were mounted using Fluoromount-G medium (Invitrogen—#00495802) and coverslips (Fisher Scientific—#12545E) and imaged with a Zeiss LSM 710 confocal microscope with ×20 objective. Quantification was carried out by QuPath software (version 0.3.2). F4/80+ macrophages and F4/80+ Arg1+ M2 macrophages were classified based on their fluorescence signal.

[2] = test system: 4T1 cells; assay: Cytokine and chemokine gene expression in 4T1 cells in vitro; type: cell-based, mouse; conditions: Figure 8A
[3] = test system: MDA-MB-231 TNBC cells; assay: RealTime-Glo cell viability assay, MDA-MB-231 cells; type: cell-based, human; conditions: for cytotoxicity: 100 nM, alone or in combination; for pIC50: Homo sapiens, RealTime-Glo, 24 h, read-out: IC50 (cytotoxicity)
[4] = test system: 4T1 tumors; assay: 4T1 TNBC model in vivo (primary tumor and lung metastases); parameters: species or system mouse; conditions: 4T1 model; for #Surface metastases (lung): 1,25D 0.25 μg/kg, SAHA 80 mg/kg, AM-193 0.2 mg/kg, ZG-126 high 5.0 mg/kg, vehicle 166
Description: As 4T1 cells are aggressively metastatic, we can also assess the antimetastatic activity in the same experiment. All treatments were well tolerated, and, as in the B16-F10 model, none induced weight loss or other signs of stress over the course of the experiment (Figure 7A). Treatments reduced the primary tumor burden to varying degrees.
The antimetastatic activity was determined by counting the number of surface lung metastases of duplicate samples using a stereomicroscope. […] This degree of efficacy is remarkable, as in previous experiments, DK-406 reduced the metastatic burden by ∼2-fold.[30]
(§1) Finally, mice were sacrificed, and lungs of 4T1-bearing mice were removed to evaluate the efficiency of treatments on lung metastases.

[5] = test system: hyperacetylation of tubulin, H3K9 and H3K27; assay: Western blot of tubulin and histone H3 hyperacetylation in 4T1 cells; type: cell-based, mouse; conditions: hybrids 10 μM, SAHA 100 nM, 6 h
Description: The potential for compounds as HDACi’s can be rapidly tested in cells in culture by monitoring the hyperacetylation of histone H3 and tubulin. H3 acetylation is controlled by multiple class I enzymes, and the class IIb enzyme HDAC6 regulates tubulin acetylation.[36]−[39] […] (Figure 4A).
Figure 4 Evidence for HDAC inhibition in 4T1 and 4TO7 TNBC cells. Western blots and quantification of triplicate biological replicates analyzing the effects of 1,25D (100 nM), SAHA (100 nM), and hybrids (10 μM) on hyperacetylation of tubulin (A,D), H3K9 (B,E), and H3K27 (C,F) in 4T1 (A–C) and 4TO7 cells (D–F).
After 6 h treatments, 4T1, 4T07, or B16-F10 cells were solubilized in lysis buffer (20 mM Tris, pH 8, 150 mM NaCl, 1% Triton X-100, 3.5 mM SDS, and 13 mM deoxycholic acid), and proteins were separated on a 4–15% Tris/glycine/SDS gel (Bio-Rad). Then, the proteins were transferred to a nitrocellulose membrane, followed by blocking in 5% skim milk in Tris-buffered saline (TBS, 1×) solution. After blocking, the membranes were incubated overnight at 4 °C with the primary antibodies against acetylated tubulin (Sigma-Aldrich—#T7451), tubulin (Sigma-Aldrich—#T9026), acetyl-histone H3(Lys9) (Merck Millipore—#07-352), acetyl-histone H3 (Lys27) (Abcam—#ab4729), total histone H3 (Cell Signaling Technology (CST)—#3638), and GAPDH (Abcam—#ab8245). Then, the membranes were incubated with antimouse (CST—#7076) or antirabbit (CST—#7074) IgG HRP-linked secondary antibodies at recommended concentrations. Finally, signals were detected using Clarity ECL substrates (Bio-Rad) and a ChemiDoc Imaging System. Changes in protein levels were quantified relative to control using Image Lab software (version 6.0.1) after normalization to GAPDH. Western blot experiments were carried out three times.

[6] = in vivo; conditions: BALB/c, mouse, ip
[7] = test system: 4T1 cells; assay: RealTime-Glo cell viability assay, 4T1 cells; conditions: for pIC50: Mus musculus, 4T1, 24 h, read-out: IC50 (cytotoxicity)
[8] = test system: 4T1 tumors; parameters: method as in PMID 1540948; conditions: 4T1 model, previous experiments ref 30; cited from earlier work
[9] = test system: hyperacetylation of tubulin, H3K9 and H3K27; assay: Western blot of tubulin and histone H3 hyperacetylation in B16-F10 cells; type: cell-based, mouse; conditions: SAHA 100 nM
Text: B16-F10 cells are responsive to 1,25D analogues[45] and HDACi[46],[47] and are therefore widely used in preclinical studies of melanoma solid tumor growth and metastases.[48] Although curable when treated early, melanoma is fatal when invasive. The American Cancer Society projected 97,610 new invasive melanoma cases in the US in 2023 and 7990 deaths. Current treatment options include chemotherapy, surgery, immunotherapy, or single agents targeting mutated genes such as B-RAF or C-KIT.[49]
After 6 h treatments, 4T1, 4T07, or B16-F10 cells were solubilized in lysis buffer (20 mM Tris, pH 8, 150 mM NaCl, 1% Triton X-100, 3.5 mM SDS, and 13 mM deoxycholic acid), and proteins were separated on a 4–15% Tris/glycine/SDS gel (Bio-Rad). Then, the proteins were transferred to a nitrocellulose membrane, followed by blocking in 5% skim milk in Tris-buffered saline (TBS, 1×) solution. […] Finally, signals were detected using Clarity ECL substrates (Bio-Rad) and a ChemiDoc Imaging System. Changes in protein levels were quantified relative to control using Image Lab software (version 6.0.1) after normalization to GAPDH. […]
Figure S2. […] Quantification of the analyses of hyperacetylation in B16-F10 cells of tubulin, H3K9 and H3K27. […]

[10] = Solubility; type: physicochemical
[11] = target: T1, VDR (Mus musculus, UniProt P48281); assay: Cyp24a1 gene induction (VDR agonism) in 4T1 cells; type: cell-based; parameters: endogenous in cells; conditions: Figure 2A
T1 sequence (P48281 1-422): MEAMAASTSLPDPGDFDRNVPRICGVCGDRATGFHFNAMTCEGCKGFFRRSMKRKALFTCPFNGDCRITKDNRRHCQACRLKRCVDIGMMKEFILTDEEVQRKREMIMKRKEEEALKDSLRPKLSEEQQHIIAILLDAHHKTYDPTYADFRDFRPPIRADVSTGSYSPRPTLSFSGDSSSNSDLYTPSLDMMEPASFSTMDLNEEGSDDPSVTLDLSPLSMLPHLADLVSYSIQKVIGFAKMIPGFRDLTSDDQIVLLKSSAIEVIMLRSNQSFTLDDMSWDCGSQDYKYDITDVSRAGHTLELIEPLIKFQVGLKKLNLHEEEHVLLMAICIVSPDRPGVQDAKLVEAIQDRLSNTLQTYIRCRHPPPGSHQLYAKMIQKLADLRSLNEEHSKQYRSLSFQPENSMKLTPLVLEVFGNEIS
Description: We first examined the effect of the modified structures on solubility. […] The bifunctionality of ZG compounds was then analyzed in a battery of assays. VDR agonism was determined by evaluating the induction of the Cyp24a1 gene. Cyp24a1 encodes the enzyme that initiates the catabolic degradation of 1,25D in a negative-feedback loop, and its gene transcription is exquisitely sensitive to the presence of the agonist-bound VDR. Agonism was assessed initially in mouse 4T1 cells and in related 4TO7 TNBC cells (Figure 2A,B). […] Apparent potencies were lower than those of DK-406 and AM-193.
RNA extraction was performed with the FavorPrep tissue total RNA mini kit (FAVORGEN Biotech Corporation FATRK 001) as per manufacturer’s instructions. cDNA was obtained from 1 μg of RNA using 5× All-in-One RT MasterMix (Applied Biological Materials (abm) Inc. G485) and diluted 5 times. qPCR was performed with BrightGreen 2× q-PCR MasterMix (abm MasterMix-LR-XL) on a Roche LightCycler 96 system. Expression of targeted genes was normalized to 18 s.

[12] = test system: B16-F10 tumors; assay: B16-F10 melanoma model in vivo; parameters: species or system mouse; conditions: C57BL/6 mice; ZG-126 5 mg/kg, AM-193 0.2 mg/kg, 1,25D 0.25 μg/kg, SAHA 80 mg/kg, gemcitabine 50 mg/kg
Description: We were then interested in comparing the efficacy of ZG compounds and other hybrids in tumor models in vivo. We focused initially on the B16-F10 melanoma which is syngeneic with C57BL/6 mice. The efficacy of ZG-126 in vivo in this model was tested in two experiments. […] In a second experiment, we compared the antitumor efficacy of hybrids at ∼0.5 MTD doses. […] All treatments were well tolerated, and body weights were unaffected (Figure 6C).
as §1

Compound | #Surface metastases (lung) [4] | MTD [6] [mg/kg] | pIC50 [3] | pIC50 [7] | solubility [10] [µg/mL] | other results
C=C1/C(=C\C=C2/CCC[C@]3(C)[C@@H]([C@H](C)CCCC(C)(C)O)CC[C@@H]23)C[C@@H](O)C[C@@H]1O [1,25D, 1,25-dihydroxyvitamin D] | 114 |  |  |  |  | total macrophage infiltration into 4T1 tumors (F4/80 staining) [1]: significantly reduced; expression of Ccl2, Ccl5, Ccl20, and Cxcl10 [2]: inhibited; expression of the gene encoding interleukin-1α [2]: induced; cytotoxicity [3]: did not display significant cytotoxicity
CCC(CC)(c1ccc(OCCCCCC(=O)NO)cc1)c1ccc(OCC(O)C(C)(C)C)c(C)n1 (centres unmarked) [AM-193, reference compound] | 89 | 0.5 | 6.30 | 6.13 |  | tubulin acetylation [5]: highly efficacious inducer of tubulin acetylation; effect on primary tumor burden ([4]; AM-193 0.2 mg/kg compared with ZG-126 5 mg/kg): less efficacious than the high dose of ZG-126
CCC(CC)(c1ccc(C(=O)NCCCCCC(=O)NO)cc1)c1ccc(OCC(O)C(C)(C)C)c(C)c1 (centres unmarked) [DK-406, reference compound] |  | 1 | 5.61 | 5.04 | 4.40 (≈ 8.35 µM) | reduction of metastatic burden [8]: ~2 fold; tubulin acetylation and histone hyperacetylation [9]: induced very high levels of tubulin acetylation and histone hyperacetylation
O=C(CCCCCCC(=O)Nc1ccccc1)NO [SAHA, reference compound] | 139 |  |  |  |  | total macrophage infiltration into 4T1 tumors (F4/80 staining) [1]: not; cytotoxicity [3]: did not display significant cytotoxicity; cytotoxicity ([7]; 4T1 cells, 100 nM, alone or in combination): did not display significant cytotoxicity
CCC(CC)(c1ccc(C(=O)NCCCCCC(=O)NO)cc1)c1ccc(OCC(O)C(C)(C)C)c(C)n1 (centres unmarked) [ZG-102, 4-(3-(5-(2-Hydroxy-3,3-dimethylbutoxy)-6-methylpyridin-2-yl)pentan-3-yl)-N-(6-(hydroxyamino)-6-oxohexyl)benzamide] |  | 10 | 5.66 | 4.25 | 4.45 (≈ 8.43 µM) | Cyp24a1 induction [11]: did not appear to be a full agonist
CCC(CC)(c1ccc(C(=O)NCCCC(=O)NO)cc1)c1ccc(OCC(O)C(C)(C)C)c(C)n1 (centres unmarked) [ZG-132, 4-(3-(5-(2-Hydroxy-3,3-dimethylbutoxy)-6-methylpyridin-2-yl)pentan-3-yl)-N-(4-(hydroxyamino)-4-oxobutyl)benzamide] |  | 10 | 6.02 | 5.34 | 10.71 (≈ 21.4 µM) | Cyp24a1 induction [11]: did not appear to be a full agonist
Nc1ccn([C@@H]2O[C@H](CO)[C@@H](O)C2(F)F)c(=O)n1 [gemcitabine, reference compound] |  |  |  |  |  | B16-F10 tumor burden [12]: statistically significant reduction in tumor burden

From article PMC11249012 (Journal of Medicinal Chemistry, 2024)
